The results in this text go back to US9504747B2, “Lipids and lipid compositions for the delivery of active agents” (Novartis AG, priority 2013, dated 2016).

Tested on in one series: not listed separately
Kind of series: pKa measurement of the cationic lipid (TNS fluorescence vs pH). Conditions: probe TNS (fluorescent probe), Table 4; pKa of the cationic lipid of formula (I). It is filed as physicochemical. Summed up:
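Lipid (2 mM ethanol stock) mixed with TNS probe (0.3 mM stock) and diluted into twelve sodium phosphate/citric acid buffers of varying pH. TNS fluorescence read after background subtraction and normalized to the lowest-pH value. pKa taken as the pH at half-maximal normalized fluorescence on the smoothed curve, precise to about 0.1 units.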
As to `CCCCC/C=C\C/C=C\CCCCCCCC(=O)OCCCCOc1cc(CN(C)C)cc(OCCCCOC(=O)CCCCCCC/C=C\C/C=C\CCCCC)c1` [Example 38], the pKa (in general, the negative logarithm of the acid dissociation constant) was determined as 5.93.

The molecule `CCCCC/C=C\C/C=C\CCCCCCCC(=O)OCCCOc1cc(CN(C)C)cc(OCCCOC(=O)CCCCCCC/C=C\C/C=C\CCCCC)c1` [Example 39] returned a pKa of 5.91.

The series is the same for the next values; noted with them: probe TNS (fluorescent probe), Table 5; pKa of the cationic lipid of formula (I).
`CCCCC/C=C\C/C=C\CCCCCCCC(=O)OCCCCOc1cc(CN(C)C)cc(OCCCCOC(=O)CCCCCCC/C=C\C/C=C\CCCCC)c1` [Example 38] registered a pKa of 5.93.

In turn, `CCCCC/C=C\C/C=C\CCCCCCCC(=O)OCCCOc1cc(CN(C)C)cc(OCCCOC(=O)CCCCCCC/C=C\C/C=C\CCCCC)c1` [Example 39] came in with a pKa of 5.91.

Tested on in the next series: not listed separately
Put plainly: Polydispersity index (PDI) of the lipid nanoparticle (dynamic light scattering). It is filed as physicochemical. The conditions noted are these: Table 4; FVII siRNA LNP; Chol/DSPC/stealth lipid PEG-DMG, 45/44/9/2. The source says: The lipid nanoparticles (LNPs) were formed by mixing equal volumes of lipids dissolved in alcohol with siRNA dissolved in a citrate buffer by an impinging jet process. […] The siRNA to total lipid ratio is approximately 0.05 (wt/wt). Where a LNP formulation contains four lipid components, the molar ratios correspond to the type of lipid as it appears in the first four columns of the table, in the order that they appear. The ratio of the lipids ranges from 20 to 70 mole percent for the cationic lipid with a target of 40-60, the mole percent of helper lipid ranges from 20 to 70 with a target of 30 to 50, the mole percent of neutral lipid ranges from 0-30, the mole percent of PEG lipid has a range from 1 to 6 with a target of 2 to 5. The concentration of siRNA solution ranges from 0.7 to 1.0 mg/mL with a target of 0.8 to 0.9 mg/mL in a sodium citrate: sodium chloride buffer pH 4-6, with a target of 4.5-5.5. The LNPs are formed by mixing equal volumes of lipid solution in ethanol with siRNA dissolved in a citrate buffer by an impinging jet process through a mixing device with ID ranging from 0.25 to 2.0 mm at a flow rate from 10 to 640 mL/min. The mixed LNP solution is held at room temperature for 0-24 hrs prior to a dilution step. […] The final product is sterile filtered and stored at 4° C. Unless indicated otherwise, all PDIs referred to herein are the PDI of the fully formed nanoparticle, as measured by dynamic light scattering on a Malvern Zetasizer. The nanoparticle sample was diluted in phosphate buffered saline (PBS) so that the count rate was approximately 200-400 kcts. The data is presented in Tables 4 and 5 as a weighted average of the intensity measure.
`CCCCC/C=C\C/C=C\CCCCCCCC(=O)OCCCCOc1cc(CN(C)C)cc(OCCCCOC(=O)CCCCCCC/C=C\C/C=C\CCCCC)c1` [Example 38] had a PDI of 0.02.

Still in this series, the particulars now being: Table 4; FVII siRNA LNP; Chol/DSPC/stealth lipid S010, 45/44/9/2.
With `CCCCC/C=C\C/C=C\CCCCCCCC(=O)OCCCCOc1cc(CN(C)C)cc(OCCCCOC(=O)CCCCCCC/C=C\C/C=C\CCCCC)c1` [Example 38], the PDI worked out at 0.04.

As for `CCCCC/C=C\C/C=C\CCCCCCCC(=O)OCCCOc1cc(CN(C)C)cc(OCCCOC(=O)CCCCCCC/C=C\C/C=C\CCCCC)c1` [Example 39], the PDI was determined as 0.044.

Still in this series, the particulars now being: Table 5; PLK1-424 siRNA LNP; stealth lipid PEG-DSG, 45/44/9/2.
With `CCCCC/C=C\C/C=C\CCCCCCCC(=O)OCCCCOc1cc(CN(C)C)cc(OCCCCOC(=O)CCCCCCC/C=C\C/C=C\CCCCC)c1` [Example 38], the PDI worked out at 0.036.

Still in this series, the particulars now being: Table 5; PLK1-424 siRNA LNP; stealth lipid S010, 45/44/9/2.
The molecule `CCCCC/C=C\C/C=C\CCCCCCCC(=O)OCCCCOc1cc(CN(C)C)cc(OCCCCOC(=O)CCCCCCC/C=C\C/C=C\CCCCC)c1` [Example 38] displayed a PDI of 0.036.

As for `CCCCC/C=C\C/C=C\CCCCCCCC(=O)OCCCOc1cc(CN(C)C)cc(OCCCOC(=O)CCCCCCC/C=C\C/C=C\CCCCC)c1` [Example 39], the PDI is 0.039.

Tested on in a further series: not listed separately
Kind of series: Particle size of the lipid nanoparticle (dynamic light scattering, Malvern Zetasizer). The conditions noted are these: Table 4; FVII siRNA LNP; Chol/DSPC/stealth lipid PEG-DMG, molar ratio 45/44/9/2; Z-average. The format is physicochemical. The source says: The lipid nanoparticles have a size of about 1 to about 2,500 nm, about 1 to about 1,500 nm, about 1 to about 1,000 nm, in a sub-embodiment about 50 to about 600 nm, in a sub-embodiment about 50 to about 400 nm, in a sub-embodiment about 50 to about 250 nm, and in a sub-embodiment about 50 to about 150 nm. Unless indicated otherwise, all sizes referred to herein are the average sizes (diameters) of the fully formed nanoparticle, as measured by dynamic light scattering on a Malvern Zetasizer. The nanoparticle sample is diluted in phosphate buffered saline (PBS) so that the count rate is approximately 200-400 kcts. The data is presented as a weighted average of the intensity measure. The lipid nanoparticles (LNPs) were formed by mixing equal volumes of lipids dissolved in alcohol with siRNA dissolved in a citrate buffer by an impinging jet process. […] The siRNA to total lipid ratio is approximately 0.05 (wt/wt). Where a LNP formulation contains four lipid components, the molar ratios correspond to the type of lipid as it appears in the first four columns of the table, in the order that they appear. The ratio of the lipids ranges from 20 to 70 mole percent for the cationic lipid with a target of 40-60, the mole percent of helper lipid ranges from 20 to 70 with a target of 30 to 50, the mole percent of neutral lipid ranges from 0-30, the mole percent of PEG lipid has a range from 1 to 6 with a target of 2 to 5. The concentration of siRNA solution ranges from 0.7 to 1.0 mg/mL with a target of 0.8 to 0.9 mg/mL in a sodium citrate: sodium chloride buffer pH 4-6, with a target of 4.5-5.5. The LNPs are formed by mixing equal volumes of lipid solution in ethanol with siRNA dissolved in a citrate buffer by an impinging jet process through a mixing device with ID ranging from 0.25 to 2.0 mm at a flow rate from 10 to 640 mL/min. The mixed LNP solution is held at room temperature for 0-24 hrs prior to a dilution step. […] The final product is sterile filtered and stored at 4° C. Unless indicated otherwise, all particle size measurements referred to in Tables 4 and 5 are the Z-average particle size of the fully formed nanoparticle, as measured by dynamic light scattering on a Malvern Zetasizer. The nanoparticle sample was diluted in phosphate buffered saline (PBS) so that the count rate is approximately 200-400 kcts.
For `CCCCC/C=C\C/C=C\CCCCCCCC(=O)OCCCCOc1cc(CN(C)C)cc(OCCCCOC(=O)CCCCCCC/C=C\C/C=C\CCCCC)c1` [Example 38], the “Size (nm)” value turned out to be 108.0 nm.

The same series, now with this note: Table 4; FVII siRNA LNP; Chol/DSPC/stealth lipid S010, molar ratio 45/44/9/2; Z-average.
Regarding `CCCCC/C=C\C/C=C\CCCCCCCC(=O)OCCCCOc1cc(CN(C)C)cc(OCCCCOC(=O)CCCCCCC/C=C\C/C=C\CCCCC)c1` [Example 38], the “Size (nm)” value came out at 120 nm.

Consider `CCCCC/C=C\C/C=C\CCCCCCCC(=O)OCCCOc1cc(CN(C)C)cc(OCCCOC(=O)CCCCCCC/C=C\C/C=C\CCCCC)c1` [Example 39], for which the “Size (nm)” value was 122.9 nm.

The same series, now with this note: Table 5; PLK1-424 siRNA LNP; Chol/DSPC/stealth lipid PEG-DSG, 45/44/9/2; Z-average.
Consider `CCCCC/C=C\C/C=C\CCCCCCCC(=O)OCCCCOc1cc(CN(C)C)cc(OCCCCOC(=O)CCCCCCC/C=C\C/C=C\CCCCC)c1` [Example 38], for which the “Size (nm)” value stood at 116.8 nm.

Still in this series, the particulars now being: Table 5; PLK1-424 siRNA LNP; Chol/DSPC/stealth lipid S010, 45/44/9/2; Z-average.
For the molecule `CCCCC/C=C\C/C=C\CCCCCCCC(=O)OCCCCOc1cc(CN(C)C)cc(OCCCCOC(=O)CCCCCCC/C=C\C/C=C\CCCCC)c1` [Example 38], the “Size (nm)” value is recorded as 116.8 nm.

Consider `CCCCC/C=C\C/C=C\CCCCCCCC(=O)OCCCOc1cc(CN(C)C)cc(OCCCOC(=O)CCCCCCC/C=C\C/C=C\CCCCC)c1` [Example 39], for which the “Size (nm)” value amounted to 114.3 nm.

The subject of another series is PLK-1 mRNA. Kind of series: LS411N Xenograft Assay with PLK1-424 siRNA lipid nanoparticles. The format is in vivo, Female Nu/Nu mice. The conditions noted are these: percent knock down of PLK-1 mRNA in tumor vs control; 3 mg/kg IV daily for three days, 24 h post last injection; stealth lipid PEG-DSG. The protocol:
Female Nu/Nu mice (6-8 weeks old) were implanted subcutaneously with 5×10^6 LS411N cells. Tumor growth was monitored by caliper measurement before treatment initiation. Mice bearing 150-250 mm^3 subcutaneous tumors were randomized and enrolled in the study. The stock siRNA formulations were diluted to […] with PBS for dosing. Animals enrolled in different groups received a single daily bolus IV injection of 3 mg/kg siRNA for three days. Tumors were harvested 24 hours post last injection to assess target gene regulation by qRT-PCR.
Lipid nanoparticles comprising lipid compounds of formula (I) and the PLK1-424 siRNA duplex sequence listed above were tested in the LS411N Xenograft Assay. The results of this assay are given in Table 5 below as a percent knock down of PLK-1 mRNA as compared to the control when administered as a single daily dose for three days at a dose of 3 mg/kg.
Consider `CCCCC/C=C\C/C=C\CCCCCCCC(=O)OCCCCOc1cc(CN(C)C)cc(OCCCCOC(=O)CCCCCCC/C=C\C/C=C\CCCCC)c1` [Example 38], for which the “LS411 KD 3 × 3 mg/Kg” value turned out to be 58%.

Still in this series, the particulars now being: percent knock down of PLK-1 mRNA in tumor vs control; 3 mg/kg IV daily for three days, 24 h post last injection; stealth lipid S010.
For the molecule `CCCCC/C=C\C/C=C\CCCCCCCC(=O)OCCCCOc1cc(CN(C)C)cc(OCCCCOC(=O)CCCCCCC/C=C\C/C=C\CCCCC)c1` [Example 38], the “LS411 KD 3 × 3 mg/Kg” value was 60%.

With `CCCCC/C=C\C/C=C\CCCCCCCC(=O)OCCCOc1cc(CN(C)C)cc(OCCCOC(=O)CCCCCCC/C=C\C/C=C\CCCCC)c1` [Example 39], the “LS411 KD 3 × 3 mg/Kg” value came to 55%.
